This note sets out measurements from PubChem BioAssay (NCI).

Test systems include CAKI-1 renal; CCRF-CEM leukemia; HL-60(TB) leukemia; IGROV1 ovarian; MDA-MB-231 breast; SK-OV-3 ovarian; SNB-19 CNS; UACC-257 melanoma.
Test in all cases: NCI tumour cell line growth inhibition, 48 h

SMILES strings stand for the structures. Where “and” joins values, the source holds several entries; their conditions need not be identical. Equal values may be shown once.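 Grown in 96-well plates, cells were treated for 48 hours with each compound at five concentrations. Insufficient inhibition: endpoint recorded as highest concentration tested. The concentration for 50% growth inhibition is given as GI50. Definition used: TGI = concentration required for complete inhibition of growth.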

As to `COC(=O)C1=CN(CC2=CC(=O)C(C)=CC2=O)C=C(C(=O)OC)C1c1cccc(OC)c1OC`, the GI50 in the assay on CAKI-1 renal was 10.9 µM; with CCRF-CEM leukemia it was 12.5 µM; in the assay with HL-60(TB) leukemia it was 5.07 µM; in the assay on IGROV1 ovarian, 17.4 µM; in the assay with MDA-MB-231 breast, 11.8 µM; in the assay with SK-OV-3 ovarian it was 42.8 µM. For the same compound, the GI50 in the assay with SNB-19 CNS was above 43.1 µM; with UACC-257 melanoma, 18.5 µM. Besides, the TGI was 29.7 µM in the assay on CAKI-1 renal; 77.9 µM in the assay with CCRF-CEM leukemia; 14.1 µM in the assay with HL-60(TB) leukemia; 47.3 µM in the assay with IGROV1 ovarian; 28.9 µM in the assay on MDA-MB-231 breast; above 61.5 µM in the assay with SK-OV-3 ovarian. The figures for the TGI with SNB-19 CNS and in the assay with UACC-257 melanoma were above 70 µM and 43.5 µM, respectively.

Take `O=C(Oc1ccccc1)c1cc(O)c(O)c(O)c1`: the GI50 in the assay with CAKI-1 renal is 15.4 µM; with CCRF-CEM leukemia it was 1.28 µM; in the assay on HL-60(TB) leukemia, 1.43 µM; with IGROV1 ovarian, 11.6 µM; in the assay on MDA-MB-231 breast it was 26.2 µM; with SK-OV-3 ovarian it was 9.22 µM. Besides, the GI50 in the assay with SNB-19 CNS was 13.8 µM; in the assay on UACC-257 melanoma, 35.8 µM. Besides, the TGI with CAKI-1 renal was above 100 µM; with CCRF-CEM leukemia it was above 100 µM; in the assay with HL-60(TB) leukemia, 7.12 µM; in the assay with IGROV1 ovarian, above 100 µM; with MDA-MB-231 breast, above 100 µM; in the assay with SK-OV-3 ovarian it was above 100 µM. Besides, the TGI with SNB-19 CNS and in the assay with UACC-257 melanoma was above 100 µM each time.

Turning to `COc1cc2c(cc1OCCCCCOc1cc(-c3ccc(F)cc3)nc(C)n1)N=C[C@@H]1CCCN1C2=O`, the GI50 in the assay with CAKI-1 renal is above 41.7 µM; in the assay on HL-60(TB) leukemia, above 100 µM; in the assay with IGROV1 ovarian, above 27.8 µM; with MDA-MB-231 breast it was above 39.5 µM; in the assay on SK-OV-3 ovarian it was above 51.6 µM; in the assay with SNB-19 CNS it was above 46.2 µM. The GI50 in the assay with UACC-257 melanoma is above 100 µM. In addition, the TGI in the assay on CAKI-1 renal is above 66.9 µM; in the assay on CCRF-CEM leukemia, above 45.2 µM; in the assay with HL-60(TB) leukemia, above 100 µM; in the assay with IGROV1 ovarian it was above 49.6 µM; in the assay with MDA-MB-231 breast it was above 65.5 µM; in the assay on SK-OV-3 ovarian, above 78.8 µM. The TGI with SNB-19 CNS and in the assay with UACC-257 melanoma was above 100 µM throughout.

Take `COc1ccc(C2=NNC(c3ccc(-c4ccc(OC)cc4[N+](=O)[O-])o3)C2)cc1` (configuration not stated): the GI50 with CCRF-CEM leukemia is 70 µM; with HL-60(TB) leukemia it was 71.7 µM; with IGROV1 ovarian, 59.9 µM; in the assay with MDA-MB-231 breast it was 1.89 µM; with SK-OV-3 ovarian, 49.7 µM; with SNB-19 CNS it was 31.8 µM. Besides, in the assay on UACC-257 melanoma, the GI50 is 38.4 µM. For the same compound, the TGI with CCRF-CEM leukemia is above 100 µM; in the assay with HL-60(TB) leukemia, above 100 µM; in the assay on IGROV1 ovarian it was above 100 µM; with MDA-MB-231 breast it was 43.6 µM; with SK-OV-3 ovarian it was above 100 µM; in the assay with SNB-19 CNS, above 100 µM. In addition, the TGI in the assay on UACC-257 melanoma was above 100 µM.

As for `Nc1nc(-n2cccn2)nc(-n2cccn2)c1Br`, the GI50 with CAKI-1 renal was 93.7 µM; in the assay with CCRF-CEM leukemia it was above 100 µM; with HL-60(TB) leukemia, above 100 µM; with IGROV1 ovarian, above 100 µM; in the assay on MDA-MB-231 breast it was above 100 µM; with SK-OV-3 ovarian it was above 100 µM. The GI50 in the assay with UACC-257 melanoma is above 100 µM. For the same compound, the TGI in the assay with CAKI-1 renal, with CCRF-CEM leukemia, in the assay with HL-60(TB) leukemia, with IGROV1 ovarian, in the assay on MDA-MB-231 breast and in the assay on SK-OV-3 ovarian was above 100 µM each time. In addition, in the assay with UACC-257 melanoma, the TGI was above 100 µM.

With `OCCN(CO)CN(CN(CO)CCO)c1nc(N(CN(CO)CCO)CN(CO)CCO)nc(N(CN(CO)CCO)CN(CO)CCO)n1`, the GI50 in the assay on CCRF-CEM leukemia was 0.55 ng/mL; with HL-60(TB) leukemia, 0.55 ng/mL; in the assay on IGROV1 ovarian it was 1.75 ng/mL; in the assay on MDA-MB-231 breast, 1.01 ng/mL; with SK-OV-3 ovarian, 1.26 ng/mL; with SNB-19 CNS it was 2.32 ng/mL. The GI50 with UACC-257 melanoma was 1.42 ng/mL. Besides, the TGI stood at 2.52 ng/mL with CCRF-CEM leukemia; 0.859 ng/mL with HL-60(TB) leukemia; 5.46 ng/mL in the assay with IGROV1 ovarian; 3.23 ng/mL in the assay on MDA-MB-231 breast; 4.21 ng/mL in the assay on SK-OV-3 ovarian; 744 ng/mL with SNB-19 CNS. This compound showed a TGI with UACC-257 melanoma of 3.21 ng/mL.

For the compound `CCCCCCC(C)CC(CCCCCC)NCCOC(=O)c1ccc([N+](=O)[O-])cc1` (configuration not stated), the GI50 in the assay on CAKI-1 renal is 12.2 µM and 4.21 µM. Besides, the TGI in the assay with CAKI-1 renal is 25.3 µM and 18.4 µM; in the assay on CCRF-CEM leukemia, 12.6 µM and 18.3 µM; in the assay on IGROV1 ovarian, 27 µM and 25.1 µM; in the assay on MDA-MB-231 breast, 23.5 µM and 20.9 µM; in the assay with SK-OV-3 ovarian, 31.8 µM and 30.4 µM; in the assay with SNB-19 CNS, 32.2 µM and 32.5 µM. Further, the TGI in the assay with UACC-257 melanoma was 21.4 µM and 16.8 µM.

`COc1ccc(-c2ccc(/C=N/n3cn[nH]c3=S)o2)c([N+](=O)[O-])c1`: the GI50 was 32.6 µM in the assay on CAKI-1 renal; 26.1 µM in the assay on CCRF-CEM leukemia; 14.5 µM in the assay on HL-60(TB) leukemia; 39.6 µM with IGROV1 ovarian; 45.5 µM in the assay on SK-OV-3 ovarian; 63.2 µM with SNB-19 CNS. The TGI is above 100 µM with CAKI-1 renal; 75.3 µM in the assay with CCRF-CEM leukemia; 33.7 µM in the assay with HL-60(TB) leukemia; above 100 µM with IGROV1 ovarian; above 100 µM in the assay with SK-OV-3 ovarian; above 100 µM with SNB-19 CNS.

As to `Cc1cccc(C(C)(C)C)c1NC(=O)CC1C(=O)Nc2ccccc2S1=O` (configuration not stated), the TGI with CAKI-1 renal was above 100 µM; with HL-60(TB) leukemia it was 43.7 µM; in the assay on SNB-19 CNS it was above 100 µM; with UACC-257 melanoma, above 100 µM.

With `O=C(CNC(=O)c1cccc2ccccc12)Nc1ccccc1Oc1cccc(O)c1`, the GI50 in the assay on CCRF-CEM leukemia was 4.17 µM; in the assay on HL-60(TB) leukemia it was 1.31 µM; with IGROV1 ovarian, 9.96 µM; in the assay on MDA-MB-231 breast, 17.6 µM; in the assay on SK-OV-3 ovarian it was 13 µM; in the assay on SNB-19 CNS it was 8.73 µM. Further, the GI50 in the assay with UACC-257 melanoma is above 25 µM. Also, the TGI was above 25 µM with CCRF-CEM leukemia; 10.6 µM with HL-60(TB) leukemia; above 25 µM in the assay on IGROV1 ovarian; above 25 µM in the assay with MDA-MB-231 breast; above 25 µM in the assay with SK-OV-3 ovarian; above 25 µM with SNB-19 CNS. Also, in the assay with UACC-257 melanoma, the TGI was above 25 µM.
